Source: patent publication USRE48335E1, “Polymyxin derivatives as antimicrobial compounds” (priority 2014, dated 2020)
≈ marks a conversion by molar mass, not a printed value. Positions of bridges follow the written chain, without caps; N, C: chain ends. Non-standard residues stand in square brackets, D forms with d. Residues, ends and D or L forms follow the SMILES beside them. *: point of attachment. Benzoyl(4-CF3) = O=C(c1ccc(C(F)(F)F)cc1)*; X7 = O=C(c1cc(F)cc(C(F)(F)F)c1)*; X8 = O=C(c1ccc(C(F)(F)F)cc1Cl)*; X6 = O=C(c1ccc(F)c(Cl)c1)*; Nonanoyl = CCCCCCCCC(=O)*; Octanoyl = CCCCCCCC(=O)*; X5 = Cc1cc(C(=O)*)ccc1Cl; Dab = NCC[C@H](N)C(=O)O; Abu = CC[C@H](N)C(=O)O; Dap = NC[C@H](N)C(=O)O

Columns and labels:
[1] = test system: Acinetobacter baumannii
How it was run: (§1)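 Lipopeptides, as trifluoroacetate salts, tested for MIC in CAMHB by CLSI broth microdilution, with polymyxin B (sulphate) as comparator.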

[2] = test system: Enterobacter cloacae
How it was run: as §1

[3] = test system: Klebsiella pneumoniae
How it was run: as §1

[4] = test system: Pseudomonas aeruginosa
How it was run: as §1

[5] = test system: A. baumannii ATCC 19606; test: In vivo efficacy in mouse blood infection model (neutropenic Swiss mice); conditions: compound, free base 4 mg/kg intravenously 2 h after inoculation, blood at 4 h
How it was run: (§2)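 Activity expressed as Δlog10 CFU/mL blood, treated minus saline control, 4 h after a single 4 mg/kg (free base) i.v. dose given 2 h post-infection. Bloodstream infection from i.v. early log-phase inoculum in Swiss mice made neutropenic by i.p. cyclophosphamide on days −4 (150 mg/kg) and −1 (100 mg/kg).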

[6] = test system: K. pneumoniae FADDI-KP032; test: as above; conditions: compound, free base 4 mg/kg intravenously 2 h after inoculation, blood at 4 h
How it was run: as §2

[7] = test system: P. aeruginosa ATCC 27853; test: as above; conditions: compound, free base 4 mg/kg intravenously 2 h after inoculation, blood at 4 h
How it was run: as §2

Compound	MIC [1] [µg/mL]	Minimum inhibitory concentration, Ab A ATCC 17978 [1] [µg/mL]	Minimum inhibitory concentration, Ab ATCC 19606 [1] [µg/mL]	Minimum inhibitory concentration, Ab FADDI-AB034 [1] [µg/mL]	Minimum inhibitory concentration, Ec FADDI-EC001 [2] [µg/mL]	Minimum inhibitory concentration, Ec FADDI-EC003 [2] [µg/mL]	Minimum inhibitory concentration, Ec FADDI-EC006 [2] [µg/mL]	MIC [3] [µg/mL]	MIC [4] [µg/mL]	Minimum inhibitory concentration, Pa ATCC 27853 [4] [µg/mL]	Minimum inhibitory concentration, Pa FADDI-PA022 [4] [µg/mL]	Minimum inhibitory concentration, Pa FADDI-PA025 [4] [µg/mL]	Δ log (Treated-Control at 4 h) [5] [log10 CFU/mL]	Δ log (Treated-Control at 4 h) [6] [log10 CFU/mL]	Δ log (Treated-Control at 4 h) [7] [log10 CFU/mL]
CCCCCCCCC(=O)N[C@@H](CCN)C(=O)N[C@H](C(=O)N[C@@H](CN)C(=O)N[C@H]1CCNC(=O)[C@H]([C@@H](C)O)NC(=O)[C@H](CCN)NC(=O)[C@H](CCN)NC(=O)[C@H]([C@@H](C)O)NC(=O)[C@@H](CC(C)C)NC(=O)[C@H](CCN)NC1=O)[C@@H](C)O [Compound 58] (Nonanoyl-[Dab]T[Dap][Dab][Dab][dL]T[Dab][Dab]T; lactam 4-C)	0.25 (≈ 0.219 µM)	0.5 (≈ 0.437 µM)	0.25 (≈ 0.219 µM)	1 (≈ 0.875 µM)	0.25 (≈ 0.219 µM)	0.25 (≈ 0.219 µM)	0.5 (≈ 0.437 µM)	0.25 (≈ 0.219 µM)	0.5 (≈ 0.437 µM)	0.5 (≈ 0.437 µM)	2 (≈ 1.75 µM)	2 (≈ 1.75 µM)	−2.15	−3.21	−3.00
CC[C@@H]1NC(=O)[C@@H](CC(C)C)NC(=O)[C@H](CCN)NC(=O)[C@@H](NC(=O)[C@H](CN)NC(=O)[C@@H](NC(=O)[C@H](CCN)NC(=O)c2ccc(C(F)(F)F)cc2)[C@@H](C)O)CCNC(=O)[C@H]([C@@H](C)O)NC(=O)[C@H](CCN)NC(=O)[C@H](CCN)NC1=O [Compound 74] ({Benzoyl(4-CF3)}-[Dab]T[Dap][Dab][Dab][dL][Abu][Dab][Dab]T; lactam 4-C)	0.5 (≈ 0.431 µM)	0.5 (≈ 0.431 µM)	0.5 (≈ 0.431 µM)	1 (≈ 0.863 µM)	<0.125	0.25 (≈ 0.216 µM)	2 (≈ 1.73 µM)	0.25 (≈ 0.216 µM)	0.5 (≈ 0.431 µM)	0.5 (≈ 0.431 µM)	0.5 (≈ 0.431 µM)	2 (≈ 1.73 µM)	−2.34	−2.94	−3.10
CC[C@@H]1NC(=O)[C@@H](CC(C)C)NC(=O)[C@H](CCN)NC(=O)[C@@H](NC(=O)[C@H](CN)NC(=O)[C@@H](NC(=O)[C@H](CCN)NC(=O)c2ccc(Cl)c(C)c2)[C@@H](C)O)CCNC(=O)[C@H]([C@@H](C)O)NC(=O)[C@H](CCN)NC(=O)[C@H](CCN)NC1=O [Compound 104] (X5-[Dab]T[Dap][Dab][Dab][dL][Abu][Dab][Dab]T; lactam 4-C)	1 (≈ 0.877 µM)	0.5 (≈ 0.439 µM)	1 (≈ 0.877 µM)	0.25 (≈ 0.219 µM)	0.5 (≈ 0.439 µM)	0.25 (≈ 0.219 µM)	0.5 (≈ 0.439 µM)	1 (≈ 0.877 µM)	0.5 (≈ 0.439 µM)	0.5 (≈ 0.439 µM)	0.5 (≈ 0.439 µM)	2 (≈ 1.75 µM)	−1.35	−3.23	−3.08
CC[C@@H]1NC(=O)[C@@H](CC(C)C)NC(=O)[C@H](CCN)NC(=O)[C@@H](NC(=O)[C@H](CN)NC(=O)[C@@H](NC(=O)[C@H](CCN)NC(=O)c2cc(F)cc(C(F)(F)F)c2)[C@@H](C)O)CCNC(=O)[C@H]([C@@H](C)O)NC(=O)[C@H](CCN)NC(=O)[C@H](CCN)NC1=O [Compound 108] (X7-[Dab]T[Dap][Dab][Dab][dL][Abu][Dab][Dab]T; lactam 4-C)	0.5 (≈ 0.425 µM)	0.5 (≈ 0.425 µM)	0.5 (≈ 0.425 µM)	0.5 (≈ 0.425 µM)	1 (≈ 0.849 µM)	0.5 (≈ 0.425 µM)	0.5 (≈ 0.425 µM)	0.25 (≈ 0.212 µM)	0.5 (≈ 0.425 µM)	0.5 (≈ 0.425 µM)	0.5 (≈ 0.425 µM)	2 (≈ 1.7 µM)	−1.82	−2.84	−2.32
CC[C@@H]1NC(=O)[C@@H](CC(C)C)NC(=O)[C@H](CCN)NC(=O)[C@@H](NC(=O)[C@H](CN)NC(=O)[C@@H](NC(=O)[C@H](CCN)NC(=O)c2ccc(C(F)(F)F)cc2Cl)[C@@H](C)O)CCNC(=O)[C@H]([C@@H](C)O)NC(=O)[C@H](CCN)NC(=O)[C@H](CCN)NC1=O [Compound 109] (X8-[Dab]T[Dap][Dab][Dab][dL][Abu][Dab][Dab]T; lactam 4-C)	0.25 (≈ 0.209 µM)	1 (≈ 0.838 µM)	0.25 (≈ 0.209 µM)	1 (≈ 0.838 µM)	1 (≈ 0.838 µM)	<0.125	0.25 (≈ 0.209 µM)	0.25 (≈ 0.209 µM)	0.5 (≈ 0.419 µM)	0.5 (≈ 0.419 µM)	0.5 (≈ 0.419 µM)	2 (≈ 1.68 µM)	−1.54	−3.47	−2.68
CC[C@@H]1NC(=O)[C@@H](CC(C)C)NC(=O)[C@H](CCN)NC(=O)[C@@H](NC(=O)[C@H](CN)NC(=O)[C@@H](NC(=O)[C@H](CCN)NC(=O)c2ccc(F)c(Cl)c2)[C@@H](C)O)CCNC(=O)[C@H]([C@@H](C)O)NC(=O)[C@H](CCN)NC(=O)[C@H](CCN)NC1=O [Compound 110] (X6-[Dab]T[Dap][Dab][Dab][dL][Abu][Dab][Dab]T; lactam 4-C)	2 (≈ 1.75 µM)	0.5 (≈ 0.437 µM)	2 (≈ 1.75 µM)	0.5 (≈ 0.437 µM)	1 (≈ 0.874 µM)	1 (≈ 0.874 µM)	0.5 (≈ 0.437 µM)	0.25 (≈ 0.219 µM)	0.5 (≈ 0.437 µM)	0.5 (≈ 0.437 µM)	0.5 (≈ 0.437 µM)	1 (≈ 0.874 µM)	−1.57	−2.50	−3.30
CCCCCCCC(=O)N[C@@H](CCN)C(=O)N[C@H](C(=O)N[C@@H](CN)C(=O)N[C@H]1CCNC(=O)[C@H]([C@@H](C)O)NC(=O)[C@H](CCN)NC(=O)[C@H](CCN)NC(=O)[C@H]([C@@H](C)O)NC(=O)[C@@H](Cc2ccccc2)NC(=O)[C@H](CCN)NC1=O)[C@@H](C)O [Compound 129] (Octanoyl-[Dab]T[Dap][Dab][Dab][dF]T[Dab][Dab]T; lactam 4-C)	0.5 (≈ 0.43 µM)	0.25 (≈ 0.215 µM)	0.5 (≈ 0.43 µM)	0.25 (≈ 0.215 µM)	0.5 (≈ 0.43 µM)	<0.125	0.5 (≈ 0.43 µM)	<0.125	0.5 (≈ 0.43 µM)	0.5 (≈ 0.43 µM)	1 (≈ 0.86 µM)	2 (≈ 1.72 µM)	−1.42	−3.64	−3.45
